The values that follow come from PMC12594101, “Biphasic control of the B cell transcriptome by mTORC1 and GSK3” (Cell reports, 2025).

The target of test [1] is GSK3A (Homo sapiens, UniProt P49840). Briefly: in vitro HotSpot kinase assay (Reaction Biology), 10-dose IC50 in triplicate. The format is biochemical.
Test [2] addresses GSK3B (Homo sapiens, UniProt P49841). The test is described as above. The format is biochemical.

Sequence of GSK3B (P49841 whole entry): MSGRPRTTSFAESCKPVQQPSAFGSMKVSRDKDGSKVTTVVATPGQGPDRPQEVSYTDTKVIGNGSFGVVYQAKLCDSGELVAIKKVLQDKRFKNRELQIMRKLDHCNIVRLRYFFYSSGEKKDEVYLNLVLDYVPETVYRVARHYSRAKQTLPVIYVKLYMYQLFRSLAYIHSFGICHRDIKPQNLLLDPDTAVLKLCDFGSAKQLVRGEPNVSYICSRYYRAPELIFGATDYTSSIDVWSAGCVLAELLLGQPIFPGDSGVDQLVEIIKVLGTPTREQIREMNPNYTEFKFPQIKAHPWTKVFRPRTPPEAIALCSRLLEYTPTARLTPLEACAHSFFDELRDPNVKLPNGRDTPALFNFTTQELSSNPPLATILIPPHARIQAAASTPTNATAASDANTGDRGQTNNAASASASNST
Sequence of GSK3A (P49840 2-483): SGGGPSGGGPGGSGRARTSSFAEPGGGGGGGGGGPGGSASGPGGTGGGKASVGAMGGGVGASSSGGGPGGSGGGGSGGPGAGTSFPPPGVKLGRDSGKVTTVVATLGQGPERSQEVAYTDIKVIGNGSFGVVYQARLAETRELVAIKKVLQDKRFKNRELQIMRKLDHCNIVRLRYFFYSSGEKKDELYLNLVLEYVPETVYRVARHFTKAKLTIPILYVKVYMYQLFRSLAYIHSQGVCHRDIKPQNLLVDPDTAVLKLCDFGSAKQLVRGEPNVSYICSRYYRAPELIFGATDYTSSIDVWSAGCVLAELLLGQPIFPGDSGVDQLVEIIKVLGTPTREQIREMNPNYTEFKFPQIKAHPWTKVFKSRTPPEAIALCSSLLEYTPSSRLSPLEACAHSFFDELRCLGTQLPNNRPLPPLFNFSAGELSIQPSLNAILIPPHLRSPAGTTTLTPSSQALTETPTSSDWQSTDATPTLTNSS

Turning to `CCn1cc(C(=O)O)c(=O)c2c(N)c(F)c(NC3CCCCC3)cc21` [AS1842856], the IC50 in test [1] and in test [2] was 2.8 nM in each case.
